According to US11535621B2, “Heterobicyclic amides as inhibitors of CD38” (Ribon Therapeutics, Inc., priority 2019, dated 2022):

Biological target: Human CD38 (Homo sapiens (Human), UniProt P28907)
Assay: CD38 enzyme assay
Format: biochemical
Conditions: 2 nM CD38, NAD+ substrate, absorbance at 405 nm
Outline: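 IC50 values come from fitting % inhibition against compound concentration with a 4-parameter logistic, or a 3-parameter fit with top/bottom fixed at 100/0 or Hill at 1. Inhibition is scaled between DMSO wells and positive-control wells treated with a quinolinone CD38 inhibitor.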

Sequence of Human CD38 (P28907 whole entry): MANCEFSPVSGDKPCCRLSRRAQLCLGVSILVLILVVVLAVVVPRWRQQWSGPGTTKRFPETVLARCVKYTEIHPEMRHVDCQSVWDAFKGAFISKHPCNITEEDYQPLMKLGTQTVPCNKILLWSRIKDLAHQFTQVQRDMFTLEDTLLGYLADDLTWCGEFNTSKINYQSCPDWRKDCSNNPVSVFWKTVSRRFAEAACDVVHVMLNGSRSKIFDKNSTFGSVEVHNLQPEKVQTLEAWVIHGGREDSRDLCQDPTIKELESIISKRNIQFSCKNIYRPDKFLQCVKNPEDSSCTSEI

O=C(Nc1ccncn1)c1nc(-n2ccnc2)nc2cc[nH]c12 [Example 150] and O=C(Nc1cc[nH]n1)c1nc(-n2ccnc2)nc2cc[nH]c12 [Example 86, 2-(1H-Imidazol-1-yl)-N-(1H-pyrazol-3-yl)-5H-pyrrolo[3,2-d]pyrimidine-4-carboxamide] cannot be ordered by IC50: < 10 nM for the first, < 10 nM for the second.

CC(F)(F)CN[C@H]1CC[C@H](NC(=O)c2nc(-n3ccnc3)nc3cc[nH]c23)CC1 [Example 235, N-((1r,4r)-4-((2,2-difluoropropyl)amino)cyclohexyl)-2-(1H-imidazol-1-yl)-5H-pyrrolo[3,2-d]pyrimidine-4-carboxamide] and O=C(N[C@H]1CC[C@H](F)CC1)c1nc(-n2ccnc2)nc2cc[nH]c12 [Example 168] fall in the same range of IC50: 10 to 100 nM for the first, 10 to 100 nM for the second.

O=C(N[C@H]1CC[C@H](N2CC(F)(F)C2)CC1)c1nc(-n2ccnc2)cc2cn[nH]c12 [Example 227, N-((1r,4r)-4-(3,3-difluoroazetidin-1-yl)cyclohexyl)-5-(1H-imidazol-1-yl)-1H-pyrazolo[3,4-c]pyridine-7-carboxamide] and CC1(C#N)CN([C@H]2CC[C@H](NC(=O)c3nc(-n4ccnc4)cc4cn[nH]c34)CC2)C1 [Example 258, N-((1r,4r)-4-(3-cyano-3-methylazetidin-1-yl)cyclohexyl)-5-(1H-imidazol-1-yl)-1H-pyrazolo[3,4-c]pyridine-7-carboxamide] fall in the same range of IC50: 10 to 100 nM for the first, 10 to 100 nM for the second.

CN(C)C(=O)CO[C@H]1CC[C@H](NC(=O)c2nc(-n3ccnc3)nc3cn[nH]c23)CC1 [Example 201, N-((1r,4r)-4-(2-(dimethylamino)-2-oxoethoxy)cyclohexyl)-5-(1H-imidazol-1-yl)-1H-pyrazolo[4,3-d]pyrimidine-7-carboxamide] and CN(C)CCO[C@H]1CC[C@H](NC(=O)c2nc(-n3ccnc3)nc3cc[nH]c23)CC1 [Example 72, N-((1r,4r)-4-(2-(Dimethylamino)ethoxy)cyclohexyl)-2-(1H-imidazol-1-yl)-5H-pyrrolo[3,2-d]pyrimidine-4-carboxamide] fall in the same range of IC50: 10 to 100 nM for the first, 10 to 100 nM for the second.

O=C(N[C@@H]1CCNC[C@H]1F)c1nc(-n2ccnc2)nc2cc[nH]c12 [Example 123b, N-((3R,4R)-3-fluoropiperidin-4-yl)-2-(1H-imidazol-1-yl)-5H-pyrrolo[3,2-d]pyrimidine-4-carboxamide] and COCCN1CCC(NC(=O)c2nc(-n3ccnc3)nc3cc[nH]c23)CC1 [Example 53, 2-(1H-Imidazol-1-yl)-N-(1-(2-methoxyethyl)piperidin-4-yl)-5H-pyrrolo[3,2-d]pyrimidine-4-carboxamide] fall in the same range of IC50: 100 to 1000 nM for the first, 100 to 1000 nM for the second.

First: CC(C)(N[C@H]1CC[C@H](NC(=O)c2nc(-n3ccnc3)cc3cn[nH]c23)CC1)C(F)F [Example 253, N-((1r,4r)-4-((1,1-difluoro-2-methylpropan-2-yl)amino)cyclohexyl)-5-(1H-imidazol-1-yl)-1H-pyrazolo[3,4-c]pyridine-7-carboxamide]
Second: CC(C)(N[C@H]1CC[C@@H](NC(=O)c2nc(-n3ccnc3)cc3cn[nH]c23)CC1)C(F)F [Example 254, N-((1s,4s)-4-((1,1-difluoro-2-methylpropan-2-yl)amino)cyclohexyl)-5-(1H-imidazol-1-yl)-1H-pyrazolo[3,4-c]pyridine-7-carboxamide]
The IC50 of the first is lower: 10 to 100 nM for the first, 100 to 1000 nM for the second. The first is the more potent here.

First: COCCO[C@H]1CC[C@H](NC(=O)c2cc(-n3ccnc3)cc3nc[nH]c23)CC1 [Example 1, 5-(1H-Imidazol-1-yl)-N-((1r,4r)-4-(2-methoxyethoxy)cyclohexyl)-1H-benzo[d]imidazole-7-carboxamide]
Second: COCCO[C@H]1CC[C@H](NC(=O)c2nc(-n3ccnc3)cc3cn[nH]c23)CC1 [Example 16, 5-(1H-Imidazol-1-yl)-N-((1r,4r)-4-(2-methoxyethoxy)cyclohexyl)-1H-pyrazolo[3,4-c]pyridine-7-carboxamide]
The IC50 of the first is higher: 100 to 1000 nM for the first, 10 to 100 nM for the second.

COCCO[C@@H]1CCC[C@H](NC(=O)c2nc(-n3ccnc3)nc3cc[nH]c23)C1 [Example 124b, 2-(1H-imidazol-1-yl)-N-((1S,3R)-3-(2-methoxyethoxy)cyclohexyl)-5H-pyrrolo[3,2-d]pyrimidine-4-carboxamide] and CN(C)CCOCCO[C@H]1CC[C@H](NC(=O)c2nc(-n3ccnc3)nc3cc[nH]c23)CC1 [Example 133] fall in the same range of IC50: 10 to 100 nM for the first, 10 to 100 nM for the second.

Going from COCCO[C@H]1CC[C@H](NC(=O)c2nc(-c3cncs3)cc3nc[nH]c23)CC1 [Example 47, N-((1r,4r)-4-(2-Methoxyethoxy)cyclohexyl)-6-(thiazol-5-yl)-3H-imidazo[4,5-c]pyridine-4-carboxamide] to N#CC[C@H]1CC[C@H](NC(=O)c2nc(-n3ccnc3)cc3cn[nH]c23)CC1 [Example 219, N-((1r,4r)-4-(cyanomethyl)cyclohexyl)-5-(1H-imidazol-1-yl)-1H-pyrazolo[3,4-c]pyridine-7-carboxamide], the IC50 falls from > 1000 nM to < 10 nM. The second is the more potent here.

Compared with O=C(Nc1ccc(OCCN2CCCC2)nc1)c1nc(-n2ccnc2)cc2cn[nH]c12 [Example 203, 5-(1H-imidazol-1-yl)-N-(6-(2-(pyrrolidin-1-yl)ethoxy)pyridin-3-yl)-1H-pyrazolo[3,4-c]pyridine-7-carboxamide], COc1ccc(NC(=O)c2nc(-n3ccnc3)nc3cc[nH]c23)cn1 [Example 85, 2-(1H-Imidazol-1-yl)-N-(6-methoxypyridin-3-yl)-5H-pyrrolo[3,2-d]pyrimidine-4-carboxamide] is lower in IC50: 10 to 100 nM for the first, < 10 nM for the second. The second is the more potent here.

First: CC(F)(F)CN[C@H]1CC[C@@H](NC(=O)c2nc(-n3ccnc3)cc3cn[nH]c23)CC1 [Example 194, N-((1s,4s)-4-((2,2-difluoropropyl)amino)cyclohexyl)-5-(1H-imidazol-1-yl)-1H-pyrazolo[3,4-c]pyridine-7-carboxamide]
Second: O=C(N[C@H]1CC[C@H](NCC(F)(F)F)CC1)c1nc(-n2ccnc2)cc2cn[nH]c12 [Example 115, 5-(1H-imidazol-1-yl)-N-((1r,4r)-4-((2,2,2-trifluoroethyl)amino)cyclohexyl)-1H-pyrazolo[3,4-c]pyridine-7-carboxamide]
The IC50 of the first is higher: 100 to 1000 nM for the first, 10 to 100 nM for the second. The second is the more potent here.

First: C[C@H](O)[C@H]1CC[C@H](NC(=O)c2nc(-n3ccnc3)nc3ccsc23)CC1 (single isomer, unassigned) [Example 267b]
Second: O=C(N[C@H]1CC[C@@H](C(F)(F)F)CC1)c1nc(-n2ccnc2)nc2ccsc12 [Example 122, 2-(1H-imidazol-1-yl)-N-((1s,4s)-4-(trifluoromethyl)cyclohexyl)thieno[3,2-d]pyrimidine-4-carboxamide]
The IC50 of the first is higher: 10 to 100 nM for the first, < 10 nM for the second. The second is the more potent here.

CN(C)CCOc1ccc(NC(=O)c2nc(-n3ccnc3)nc3ccsc23)cn1 [Example 151] and O=C(Nc1ccccc1Cl)c1nc(-n2ccnc2)nc2cc[nH]c12 [Example 89, N-(2-Chlorophenyl)-2-(1H-imidazol-1-yl)-5H-pyrrolo[3,2-d]pyrimidine-4-carboxamide] cannot be ordered by IC50: < 10 nM for the first, < 10 nM for the second.

O=C(N[C@H]1CC[C@H](N2CC(F)(F)C2)CC1)c1nc(-n2ccnc2)nc2cn[nH]c12 [Example 255, N-((1r,4r)-4-(3,3-difluoroazetidin-1-yl)cyclohexyl)-5-(1H-imidazol-1-yl)-1H-pyrazolo[4,3-d]pyrimidine-7-carboxamide] and O=C(N[C@H]1CC[C@H](CNCC(F)(F)F)CC1)c1nc(-n2ccnc2)nc2cn[nH]c12 [Example 271] fall in the same range of IC50: 10 to 100 nM for the first, 10 to 100 nM for the second.

Work on O=C(N[C@H]1CC[C@@H](N2CCOCC2)CC1)c1nc(-n2ccnc2)nc2cc[nH]c12 [Example 169] yielded an IC50 of 100 to 1000 nM.
